Holding throughout (experiment): KinomeScan profiling
What all share (format): binding

Experiment [1] has as its target T1, ULK1 (Homo sapiens, UniProt O75385).
T1 sequence (O75385 1-1050): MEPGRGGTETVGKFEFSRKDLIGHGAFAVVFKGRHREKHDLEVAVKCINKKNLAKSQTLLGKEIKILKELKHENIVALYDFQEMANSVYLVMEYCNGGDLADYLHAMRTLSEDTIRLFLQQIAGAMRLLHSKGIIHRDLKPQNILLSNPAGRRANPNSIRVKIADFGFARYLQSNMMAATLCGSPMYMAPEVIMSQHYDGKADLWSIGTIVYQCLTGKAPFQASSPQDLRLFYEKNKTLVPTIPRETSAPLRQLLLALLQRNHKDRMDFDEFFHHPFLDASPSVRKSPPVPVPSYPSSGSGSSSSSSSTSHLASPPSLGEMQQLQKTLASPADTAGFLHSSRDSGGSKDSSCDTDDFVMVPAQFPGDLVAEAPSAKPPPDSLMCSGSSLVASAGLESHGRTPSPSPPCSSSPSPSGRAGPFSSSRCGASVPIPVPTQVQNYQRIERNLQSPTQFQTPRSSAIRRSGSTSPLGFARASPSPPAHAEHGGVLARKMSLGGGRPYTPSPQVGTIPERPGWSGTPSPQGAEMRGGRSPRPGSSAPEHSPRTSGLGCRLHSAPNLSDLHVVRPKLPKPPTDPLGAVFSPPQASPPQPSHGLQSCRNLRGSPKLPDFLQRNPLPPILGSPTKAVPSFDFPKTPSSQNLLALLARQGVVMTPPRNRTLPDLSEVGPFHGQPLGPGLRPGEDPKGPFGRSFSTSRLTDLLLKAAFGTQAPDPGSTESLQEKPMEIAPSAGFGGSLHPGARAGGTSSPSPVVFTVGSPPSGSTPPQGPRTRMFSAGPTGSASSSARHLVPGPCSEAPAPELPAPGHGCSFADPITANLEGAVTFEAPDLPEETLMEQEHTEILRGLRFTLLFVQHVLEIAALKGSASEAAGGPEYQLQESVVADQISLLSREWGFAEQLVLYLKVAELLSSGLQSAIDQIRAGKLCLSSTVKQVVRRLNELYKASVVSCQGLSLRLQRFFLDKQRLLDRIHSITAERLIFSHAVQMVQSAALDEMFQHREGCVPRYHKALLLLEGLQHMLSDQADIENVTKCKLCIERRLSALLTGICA
As to conditions: ULK1, 1 μM; read-out: % control. A digest of the protocol: (§1)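 Normalised RLU (% control; DMSO 100%, positive control 0%) was measured for compounds dosed at 1 μM over 468 kinases, active cut-off <35%.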

Experiment [2] addresses T2, ABL1(M351T)-phosphorylated (Homo sapiens, UniProt P00519, M351T).
T2 construct: purchased KinomeScan®
As to conditions: read-out: % control. An outline of the steps: as §1

Experiment [3] has as its target T3, RSK3(Kin.Dom.2-C-terminal) (Homo sapiens, UniProt Q15349).
T3 construct: RSK3(Kin.Dom.2-C-terminal)
As to conditions: read-out: % control. An outline of the steps:
as §1

In experiment [4] the target is T4, MST1 (Homo sapiens, UniProt Q13043).
T4 sequence (Q13043 1-487): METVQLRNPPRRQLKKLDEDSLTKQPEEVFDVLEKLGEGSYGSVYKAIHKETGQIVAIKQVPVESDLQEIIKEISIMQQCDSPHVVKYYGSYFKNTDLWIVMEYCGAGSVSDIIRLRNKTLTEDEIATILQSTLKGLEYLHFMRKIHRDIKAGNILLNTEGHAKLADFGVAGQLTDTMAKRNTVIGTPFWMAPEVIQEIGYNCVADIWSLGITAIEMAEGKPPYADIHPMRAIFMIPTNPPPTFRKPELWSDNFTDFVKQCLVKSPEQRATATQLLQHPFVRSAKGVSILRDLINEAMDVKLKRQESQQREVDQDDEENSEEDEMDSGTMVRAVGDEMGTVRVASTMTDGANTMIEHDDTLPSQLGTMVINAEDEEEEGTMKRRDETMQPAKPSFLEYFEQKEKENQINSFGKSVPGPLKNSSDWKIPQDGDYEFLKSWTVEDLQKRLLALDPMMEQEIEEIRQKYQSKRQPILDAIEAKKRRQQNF
As to conditions: MST1, 1 μM; read-out: % control. An outline of the steps:
as §1

The target of experiment [5] is T5, EPHA8 (Homo sapiens, UniProt P29322).
T5 sequence (P29322 28-1005): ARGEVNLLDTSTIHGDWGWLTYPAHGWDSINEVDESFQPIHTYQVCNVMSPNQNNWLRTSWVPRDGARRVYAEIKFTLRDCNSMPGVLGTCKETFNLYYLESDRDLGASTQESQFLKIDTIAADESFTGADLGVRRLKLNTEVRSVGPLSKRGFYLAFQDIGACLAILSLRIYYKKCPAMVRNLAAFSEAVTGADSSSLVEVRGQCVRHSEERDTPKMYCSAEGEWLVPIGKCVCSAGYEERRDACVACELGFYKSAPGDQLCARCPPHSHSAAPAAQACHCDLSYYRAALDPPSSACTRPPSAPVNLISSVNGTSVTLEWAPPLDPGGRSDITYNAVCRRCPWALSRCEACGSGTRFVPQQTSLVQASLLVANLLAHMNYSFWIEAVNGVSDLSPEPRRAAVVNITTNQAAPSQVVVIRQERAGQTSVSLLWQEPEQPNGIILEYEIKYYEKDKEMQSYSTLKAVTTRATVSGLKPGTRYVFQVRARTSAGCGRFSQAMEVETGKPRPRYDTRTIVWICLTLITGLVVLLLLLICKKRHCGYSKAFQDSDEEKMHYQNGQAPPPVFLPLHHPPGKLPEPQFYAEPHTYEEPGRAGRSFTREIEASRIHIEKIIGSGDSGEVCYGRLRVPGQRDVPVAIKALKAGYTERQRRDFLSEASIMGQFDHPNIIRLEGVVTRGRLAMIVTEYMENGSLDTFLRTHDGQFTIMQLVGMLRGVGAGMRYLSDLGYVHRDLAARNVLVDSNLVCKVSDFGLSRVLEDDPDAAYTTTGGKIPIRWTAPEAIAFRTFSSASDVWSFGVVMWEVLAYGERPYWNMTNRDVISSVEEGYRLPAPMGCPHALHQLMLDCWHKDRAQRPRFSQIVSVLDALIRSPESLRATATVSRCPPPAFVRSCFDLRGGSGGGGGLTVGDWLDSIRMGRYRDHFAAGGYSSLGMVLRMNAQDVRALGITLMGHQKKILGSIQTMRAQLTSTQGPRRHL
As to conditions: EPHA8, 1 μM; read-out: % control. A digest of the protocol:
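Compounds were screened at 1 μM in DMSO across a 468-kinase KinomeScan panel. Binding was expressed as % control, scaled between a positive control (0%) and DMSO (100%) using luminescence signal. A value under 35% counted as active.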

T3 sequence (Q15349 415-672 limits assumed): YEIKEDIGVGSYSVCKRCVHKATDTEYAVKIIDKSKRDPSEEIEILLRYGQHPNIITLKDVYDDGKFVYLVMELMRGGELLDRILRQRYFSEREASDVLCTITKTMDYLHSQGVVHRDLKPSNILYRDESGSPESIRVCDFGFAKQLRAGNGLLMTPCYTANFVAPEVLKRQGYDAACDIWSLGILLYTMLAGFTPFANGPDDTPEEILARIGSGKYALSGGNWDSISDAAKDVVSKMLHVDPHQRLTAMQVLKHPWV

As for `CNc1c(-c2ccc(C(=O)N3CCC(N4CCOCC4)CC3)cc2)cnc2[nH]cc(Cl)c12` [Compound 96, (4-(3-chloro-4-(methylamino)-1H-pyrrolo[2,3-b]pyridin-5-yl)phenyl)(4-morpholinopiperidin-1-yl)methanone], the remaining binding at 1 µM in experiment [1] turned out to be 3.8%; in experiment [2], 71%; in experiment [3] it was 78%; in experiment [4], 81%; in experiment [5], 96%.
In the same order, the values of `O=C(c1ccc(-c2cnc3[nH]cc(Cl)c3c2NC2CCCC2)cc1)N1CCC(N2CCOCC2)CC1` [Compound 101, (4-(3-chloro-4-(cyclopentylamino)-1H-pyrrolo[2,3-b]pyridin-5-yl)phenyl)(4-morpholinopiperidin-1-yl)methanone] are 73%, 93%, 77%, 82% and 93%.
On the same counts, the results for `CNc1c(-c2cnn([C@H]3CCN(C(C)=O)C[C@@H]3F)c2)cnc2[nH]cc(Cl)c12` [Compound 77, 1-((3S,4S)-4-(4-(3-chloro-4-(methylamino)-1H-pyrrolo[2,3-b]pyridin-5-yl)-1H-pyrazol-1-yl)-3-fluoropiperidin-1-yl)ethan-1-one] are 3.1%, 75%, 100%, 93% and 94%.

The values above are taken from patent US12275731B2, “Azaindole inhibitors of wild-type and mutant forms of LRRK2” (DANA-FARBER CANCER INSTITUTE, INC., priority 2018, dated 2025).
